Experimental data taken from PMC9056950, “Synthesis and biochemical evaluation of cephalosporin analogues equipped with chemical tethers” (RSC Advances, 2020).
Values after ≈ are worked out from the molar mass of the structure shown.

Key:
PBP3 = molecular target: T1, PBP3 (Escherichia coli, UniProt P0AD68); test: thermal shift (Protein Thermal Shift dye); format: binding; conditions: 3 μM PBP3, 300 μM ligand, 25-95 °C at 1 °C/min; Tm increased
T1 construct: gene ftsI
T1 sequence (P0AD68 44-588): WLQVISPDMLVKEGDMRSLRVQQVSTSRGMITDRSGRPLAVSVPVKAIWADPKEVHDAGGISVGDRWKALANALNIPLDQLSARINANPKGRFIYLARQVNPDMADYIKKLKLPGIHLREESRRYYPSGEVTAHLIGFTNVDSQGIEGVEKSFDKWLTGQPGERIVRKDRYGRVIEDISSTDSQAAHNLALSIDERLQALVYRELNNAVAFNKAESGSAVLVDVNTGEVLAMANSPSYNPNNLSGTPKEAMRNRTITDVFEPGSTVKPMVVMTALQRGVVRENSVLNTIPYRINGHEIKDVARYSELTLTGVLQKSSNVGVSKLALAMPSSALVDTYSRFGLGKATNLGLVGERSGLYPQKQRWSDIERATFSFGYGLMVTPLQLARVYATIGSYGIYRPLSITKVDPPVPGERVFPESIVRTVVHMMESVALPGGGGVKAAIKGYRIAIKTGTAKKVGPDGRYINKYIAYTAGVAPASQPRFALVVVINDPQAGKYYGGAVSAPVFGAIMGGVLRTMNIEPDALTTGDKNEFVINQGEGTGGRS

S. aureus = system: T2, S. aureus; set-up: species or system Staphylococcus aureus NCTC 6571; broth growth inhibition, OD600, fitted MIC from dose curve, TSB, 37 C; conditions: 16 h; inhibitor
T2 construct: NCTC 6571
Procedure: Stock solutions of each compound were prepared in 50% DMSO/water at ×100 the final concentration. In a 96-well plate, 2 μL of the test compounds were added to each well. Each plate included the positive control (750 μg mL^−1 chloramphenicol), the negative control (50% DMSO/water) and media only wells. To each test well was then added 198 μL of the required bacteria stock (OD 0.05). E. coli assays were carried out using LB broth, S. aureus were carried out using tryptic soy broth (TSB). Plates were incubated at 37 °C and the OD600 was measured (Epoch 2 Microplate Spectrophotometer, BioTek) every 30 min over a 17 h period. Tests were carried out in triplicate, the background absorbance was removed using reference wells, and the averages were determined. Dose curves were plotting using the OD600 after 16 h growth vs. compound concentration. MICs were defined as the minimum concentration of compound at which no significant growth was observed after 16 h incubation. MIC values were determined using GraphPad Prism (version 8.3.0). The activity of 1–12 was investigated with growth assays against Staphylococcus aureus (NCTC 6571). S. aureus is a virulent Gram-positive pathogen that can cause a wide range of infections in humans.[29,30] Each compound was tested at 400–6 μM concentrations, with lower concentrations tested as required.

S. aureus (NCTC 6571) = system: T3, S. aureus (NCTC 6571); test: microbe, parasite or virus in culture; set-up: minimum bactericidal concentration 50 on agar plates; conditions: Staphylococcus aureus, NCTC6571; read-out: MBC50 S. aureus (NCTC 6571)
T3 construct: NCTC 6571

E. coli (BW25113) = system: T4, E. coli (BW25113); test: microbe, parasite or virus in culture; set-up: minimum bactericidal concentration 50 on agar plates; conditions: Escherichia coli, read-out: MBC50 E. coli (BW25113)
T4 construct: BW25113

PBP4 = molecular target: T5, PBP4 (Bacillus subtilis, UniProt P32959); test: biochemical; set-up: gene pbpE; commercial protein from Generon; fluorescent dye thermal shift assay, 500 nM PBP4 with 50 uM compound, delta Tm; conditions: read-out: Average DTm/°C
T5 sequence (P32959 1-451): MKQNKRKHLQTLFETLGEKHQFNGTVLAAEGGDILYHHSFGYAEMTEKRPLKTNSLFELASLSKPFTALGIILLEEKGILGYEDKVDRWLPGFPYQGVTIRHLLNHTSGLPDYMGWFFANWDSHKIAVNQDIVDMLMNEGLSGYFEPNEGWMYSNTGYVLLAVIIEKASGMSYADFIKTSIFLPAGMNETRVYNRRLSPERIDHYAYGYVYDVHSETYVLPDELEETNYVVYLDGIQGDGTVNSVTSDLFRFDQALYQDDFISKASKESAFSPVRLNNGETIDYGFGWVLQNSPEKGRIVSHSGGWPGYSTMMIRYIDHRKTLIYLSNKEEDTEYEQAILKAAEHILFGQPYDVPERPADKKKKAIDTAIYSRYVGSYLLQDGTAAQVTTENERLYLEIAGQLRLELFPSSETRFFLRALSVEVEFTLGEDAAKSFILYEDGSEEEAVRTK
Procedure: The thermal shift assay was carried out using the Protein Thermal Shift™ assay kit (Applied Biosystems). 3 μM of purified E. coli PBP3 was incubated with the β-lactam analogues at 300 μM concentration in a mixture containing the Protein Thermal Shift™ Dye. The samples were then heated in a StepOnePlus™ Real-Time PCR System from 25 to 95 °C at a rate of 1 °C min^−1. Tests were carried out in triplicate and the averages plotted as the negative first derivative vs. temperature. Reference wells, i.e. solutions consisting only of only PBP3 with dye, PBP3 only, and dye only, were used as controls. Melting temperature (Tm) values were determined with and without each compound, and the change in melting temperature (ΔTm) was obtained, Fig. 2. The thermal shift assay with PBP4 was carried out using the protocol described for PBP3, with the follow deriviatisation: 500 nM of purified Bacillus subtilis PBP4 was incubated with 50 μM of the β-lactam analogues. A thermal shift assay was used to investigate the binding of the cephalexin analogues to the therapeutic target, PBP, in vitro. This assay provides a fast and inexpensive method of detecting a ligand binding to a protein of interest. Briefly, the protein is gradually heated in the presence of a fluorescent dye that binds non-specifically to the hydrophobic surfaces. […] A change in the melting temperature (Tm) when the protein is heated in the presence of a ligand, indicates a protein–ligand interaction. […] The PBPs can be divided into two main categories: high molecular mass (HMM) and low molecular mass (LMM).[13] PBP3 was chosen as a representative HMM PBP, and PBP4 as a representative LMM PBP. Cephalexin (1) has been previously reported to show good binding affinities for both PBP3 and PBP4.[14] Penicillin (11) and cefpodoxime (12) were included as positive controls. AmpC (Uniprot ID: P00811) was purchased from Abcam plc (Cambridge, UK). PBP4 (Uniprot ID: P32959) was purchased from Generon (Slough, UK).

In the case of CC1=C(C(=O)O)N2C(=O)[C@@H](NC(=O)[C@H](NC(=O)CCCC(=O)ON3C(=O)CCC3=O)c3ccccc3)[C@H]2SC1 [compound 6, (6R,7R)-7-[(2R)-2-{5-[(2,5-Dioxopyrrolidin-1-yl)oxy]-5-oxopentanamido}-2-phenylacetamido]-3-methyl-8-oxo-5-thia-1-azabicyclo[4.2.0]oct-2-ene-2-carboxylic acid], the ΔTm (PBP3) is reported as “all of the analogues tested caused an increase in the Tm with PBP3”, the “MIC (S. aureus, best-fit)” value (S. aureus) is reported as 8.29e-05 M (≈ 46.3 µg/mL) and the MBC (S. aureus (NCTC 6571)) is reported as 200 µM (≈ 112 µg/mL). For the same compound, the MBC (E. coli (BW25113)) was > 400 µM and the ΔTm at 50 µM (PBP4) was -0.708 °C.
CC1=C(C(=O)O)N2C(=O)[C@@H](NC(=O)[C@H](NC(=O)CCCC(=O)O)c3ccccc3)[C@H]2SC1 [compound 7, (6R,7R)-7-[(2R)-2-(4-Carboxybutanamido)-2-phenylacetamido]-3-methyl-8-oxo-5-thia-1-azabicyclo[4.2.0]oct-2-ene-2-carboxylic acid] was tested, and the ΔTm (PBP3) was “all of the analogues tested caused an increase in the Tm with PBP3”, the “MIC (S. aureus, best-fit)” value (S. aureus) was 8.144e-05 M (≈ 37.6 µg/mL) and the MBC (S. aureus (NCTC 6571)) was 200 µM (≈ 92.3 µg/mL). The MBC (E. coli (BW25113)) was > 400 µM and the ΔTm at 50 µM (PBP4) was -0.422 °C.
With COCC1=C(C(=O)O)N2C(=O)[C@@H](NC(=O)/C(=N\OC)c3csc(N)n3)[C@H]2SC1 [compound 12, cefpodoxime] the “MIC (S. aureus, best-fit)” value (S. aureus) was 2.094e-05 M (≈ 8.95 µg/mL), the MBC (S. aureus (NCTC 6571)) was 100 µM (≈ 42.7 µg/mL) and the MBC (E. coli (BW25113)) was 100 µM (≈ 42.7 µg/mL). The ΔTm at 50 µM (PBP4) was -0.695 °C.
CC1=C(C(=O)O)N2C(=O)[C@@H](NC(=O)[C@H](NC(=O)CCCCC3CCSS3)c3ccccc3)[C@H]2SC1 (stereo partly drawn) [compound 5, (6R,7R)-7-[(2R)-2-[5-(1,2-Dithiolan-3-yl)pentanamido]-2-phenylacetamido]-3-methyl-8-oxo-5-thia-1-azabicyclo[4.2.0]oct-2-ene-2-carboxylic acid] was tested, and the ΔTm (PBP3) was “all of the analogues tested caused an increase in the Tm with PBP3”, the “MIC (S. aureus, best-fit)” value (S. aureus) was 2.493e-05 M (≈ 13.4 µg/mL) and the MBC (S. aureus (NCTC 6571)) was 50 µM (≈ 26.8 µg/mL). For the same compound, the MBC (E. coli (BW25113)) was > 400 µM and the ΔTm at 50 µM (PBP4) was -0.464 °C.
CC1=C(C(=O)O)N2C(=O)[C@@H](NC(=O)[C@H](NC(=O)CCCCN)c3ccccc3)[C@H]2SC1 [compound 10, (6R,7R)-7-[(2R)-2-(5-Aminopentanamido)-2-phenylacetamido]-3-methyl-8-oxo-5-thia-1-azabicyclo[4.2.0]oct-2-ene-2-carboxylic acid] was tested, and the ΔTm (PBP3) was “all of the analogues tested caused an increase in the Tm with PBP3”, the “MIC (S. aureus, best-fit)” value (S. aureus) was 5.135e-05 M (≈ 22.9 µg/mL) and the MBC (S. aureus (NCTC 6571)) was 50 µM (≈ 22.3 µg/mL). For the same compound, the MBC (E. coli (BW25113)) was > 400 µM and the ΔTm at 50 µM (PBP4) was -0.0272 °C.
With CC1=C(C(=O)O)N2C(=O)[C@@H](NC(=O)[C@H](NC(=O)CCCCCN3C(=O)C=CC3=O)c3ccccc3)[C@H]2SC1 [compound 3, (6R,7R)-7-((R)-2-(6-(2,5-dioxo-2,5-dihyrdo-1H-pyrrol-1-yl)hexanamido)-2-phenylacetamido)-3-methyl-8-oxo-5-thia-1-azabicyclo[4.2.0]oct-2-ene-2-carboxylic acid] the ΔTm (PBP3) was “all of the analogues tested caused an increase in the Tm with PBP3”, the “MIC (S. aureus, best-fit)” value (S. aureus) was ~ 5.580e-005 M and the MBC (S. aureus (NCTC 6571)) was 200 µM (≈ 108 µg/mL). The MBC (E. coli (BW25113)) was > 400 µM and the ΔTm at 50 µM (PBP4) was -0.378 °C.
In the case of C#CCCC(=O)N[C@@H](C(=O)N[C@@H]1C(=O)N2C(C(=O)O)=C(C)CS[C@H]12)c1ccccc1 [compound 4, (6R,7R)-3-Methyl-8-oxo-7-[(2R)-2-(pent-4-ynamido)-2-phenylacetamido]-5-thia-1-azabicyclo[4.2.0]oct-2-ene-2-carboxylic acid], the ΔTm (PBP3) is reported as “all of the analogues tested caused an increase in the Tm with PBP3”, the “MIC (S. aureus, best-fit)” value (S. aureus) is reported as ~ 3.501e-005 M and the MBC (S. aureus (NCTC 6571)) is reported as 50 µM (≈ 21.4 µg/mL). For the same compound, the MBC (E. coli (BW25113)) was > 400 µM and the ΔTm at 50 µM (PBP4) was -0.853 °C.
In the case of CC1=C(C(=O)O)N2C(=O)[C@@H](NC(=O)[C@H](NC(=O)COCC(=O)NCCOCCOCCOCCOCCNC(=O)CCCCCN3C(=O)C=CC3=O)c3ccccc3)[C@H]2SC1 [compound 2, (6R,7R)-7-((R)-30-(2,5-Dioxo-2,5-dihydro-1H-pyrrol-1-yl)-4,8,25-trioxo-2-phenyl-6,12,15,18,21-pentaoxa-3,9,24-triazatriacontanamido)-3-methyl-8-oxo-5-thia-1-azabicyclo[4.2.0]oct-2-ene-2-carboxylic acid], the ΔTm (PBP3) is reported as “all of the analogues tested caused an increase in the Tm with PBP3”, the “MIC (S. aureus, best-fit)” value (S. aureus) is reported as 9.255e-05 M (≈ 81 µg/mL) and the MBC (S. aureus (NCTC 6571)) is reported as 200 µM (≈ 175 µg/mL). The MBC (E. coli (BW25113)) was > 400 µM and the ΔTm at 50 µM (PBP4) was -1.95 °C.
For CC1=C(C(=O)O)N2C(=O)[C@@H](NC(=O)[C@H](N)c3ccccc3)[C@H]2SC1 [compound 1, cephalexin], the “MIC (S. aureus, best-fit)” value (S. aureus) was 1.89e-05 M (≈ 6.57 µg/mL), the MBC (S. aureus (NCTC 6571)) was 400 µM (≈ 139 µg/mL) and the MBC (E. coli (BW25113)) was > 400 µM. The ΔTm at 50 µM (PBP4) was -0.882 °C.
With CC1=C(C(=O)O)N2C(=O)[C@@H](NC(=O)[C@H](NC(=O)OC(C)(C)C)c3ccccc3)[C@H]2SC1 [compound 9, (6R,7R)-7-[(2R)-2-{[(Tert-butoxy)carbonyl]amino}-2-phenylacetamido]-3-methyl-8-oxo-5-thia-1-azabicyclo[4.2.0]oct-2-ene-2-carboxylic acid] the ΔTm (PBP3) was “all of the analogues tested caused an increase in the Tm with PBP3”, the “MIC (S. aureus, best-fit)” value (S. aureus) was 1.097e-05 M (≈ 4.91 µg/mL) and the MBC (S. aureus (NCTC 6571)) was 50 µM (≈ 22.4 µg/mL). The MBC (E. coli (BW25113)) was > 400 µM and the ΔTm at 50 µM (PBP4) was -0.809 °C.
CC(=O)N[C@@H](C(=O)N[C@@H]1C(=O)N2C(C(=O)O)=C(C)CS[C@H]12)c1ccccc1 [compound 8, (6R,7R)-7-[(2R)-2-Acetamido-2-phenylacetamido]-3-methyl-8-oxo-5-thia-1-azabicyclo[4.2.0]oct-2-ene-2-carboxylic acid] was tested, and the ΔTm (PBP3) was “all of the analogues tested caused an increase in the Tm with PBP3”, the “MIC (S. aureus, best-fit)” value (S. aureus) was ~ 5.897e-005 M and the MBC (S. aureus (NCTC 6571)) was 200 µM (≈ 77.9 µg/mL). For the same compound, the MBC (E. coli (BW25113)) was > 400 µM and the ΔTm at 50 µM (PBP4) was -0.248 °C.
